This is an account of results in patent publication US6362207B1, “Methods of treating viral infections with benzimidazoles” (priority 1995, dated 2002).

In one data set the test system is rhinovirus. The experiment in a line: In vitro rhinovirus model. Format: cell-based.
The test system of data set [1] is HIV-1 in U1 cells (promonocytic, from U937). The data set can be described thus: Additional chronic HIV studies, monocytes. Format: cell-based. As to conditions: chronic HIV model. The method, then: Chronic HIV-1 infected cells U1 were derived from an acute HIV-1 infection of the promonocytic cell line, U937. The chronic HIV-1 infected cells, ACH-2 were derived from an acute HIV-1 infection of the T cell line, A3.01.
These cells were cultured in medium and the phorbol ester, PMA. PMA causes the cells (both U1 and ACH-2) to be activated and not divide but it also causes the U-1 cells to differentiate. […] Cell viability was measured when these cell lines were treated with the test compound.
Both cell lines constituitively produce a small amount of HIV-1. ACH-2 cell lines tend to produce more HIV-1 than U1 cells as shown by p24 ELISA. When either cell line is cultured in the presence of PMA there is an increase in the quantity of HIV-1 produced as measured by the p24 antigen ELISA.
In addition, the number of […] positive HIV mRNA expressing cells per microscopic field is measured. Comparisons can be made from these numbers since the same number of cells were adhered to the glass slides for each drug concentration 10×10^6 cells/ml).
These cells were treated with test samples. […] The positive control was interferon which suppressed HIV monocytes replication by 80%.

For a further data set, the system named is HIV. The experiment in a line: microbe, parasite or virus in culture. The format is cell-based. To be noted: 1 μg/ml.
In the next data set the test system is HT29 colon tumor cells. The experiment in a line: MTT cell viability test, colon tumor cells. Format: cell-based, human. To be noted: MTT, 5 day incubation. (Tetrazolium dyes change colour on reduction, which living cells bring about.)
The next data set concerns MX1 breast cells. The experiment in a line: MTT cell viability test, breast tumor cells. As to conditions: 5 day incubation. Format: cell-based, human.
In the next data set the test system is A549 lung tumor cells. The experiment in a line: MTT cell viability test, lung tumor cells. As to conditions: MTT, 5 day incubation. Format: cell-based, human.
The test system of another data set is B-16 mouse melanoma. The method, then:
The data in Tables 1, 2 and 3 are reported in T/C which is interpreted using the following scale:
long term survivors for P388 is >30 days, for B16 it is >60 days. The NCI Measure of Success is T/C=125.
This study was performed in black mice injected i.p. with B-16 mouse melanoma which many researchers believe is the most predictive model for efficacy in humans. […] Death is the end point in this model.

For another data set, the system named is P388. The experiment in a line: P-388 model for leukemia, T/C. Format: in vivo, mice. The text has this:
In the P-388 model for leukemia there was a dose responsive effect and the results were good.
The NCI Measure of Success is T/C=125.

The format of data set [2] is in vivo. The text has this: Additional in vivo cancer studies are presented in a tabular form below. The data is presented in the following format—dose regimen in parenthesis, dosage in mg/kg: tumor growth suppression (tg supp.), toxic deaths/number of test subjects (deaths), % weight change (wt).
Data set [3] relates to MX1 breast cancer tumors implanted subcutaneously. The experiment in a line: Tumor growth reduction in mice models (Table 5), breast. Format: in vivo. To be noted: MXI-breast, positive control 125 mg/kg.
The next data set relates to lung. Format: in vivo. To be noted: A549-lung, positive control 125 mg/kg.
The next data set concerns herpes. The experiment in a line: In vivo herpes screening test. Also noted: species or system mice. To be noted: 75 mg/kg. The method, then:
The positive control was acyclovir at 75 mg/kg dose; 60% of the mice survived with a mean death date of 17.2 days.

Another data set deals with influenza. The data set can be described thus: In vivo model for influenza. Also noted: species or system mice. To be noted: 75 mg/kg; for 21 days. The method, then:
The positive control was amantadine (75 mg/kg) with 100% of the mice surviving for 21 days. 2-(Methoxycarbonylamino)benzimidazole was not active in the same test.

In a further data set the test system is colon. The experiment in a line: Tumor growth reduction in mice models (Tables 5 and 6), colon. The format is in vivo. To be noted: HT29-colon, positive control 4 mg/kg.
For data set [4] the following is noted: given for perspective; cited from earlier work.
Setting [5] is: positive control, 300 mg/kg on dose.
Where [6] appears, read: A549 (lung), positive control 125 mg/kg.
The mark [7] stands for this setting: DU-145, positive control 300 mg/kg, 1 dose.
Where [8] appears, read: HT29 (colon), positive control 300 mg/kg, 1 dose.
Where [9] appears, read: MCF-7L (breast), positive control 300 mg/kg, 1 dose.
The mark [10] stands for this setting: MX1 xenograft, positive control 300 mg/kg, 1 dose.
Setting [11] is: SK-MES, positive control 2 mg/kg, 5 doses.

The term LD50 denotes the dose expected to kill half of the subjects tested.

Read-outs that look alike come from different tables or passages of the source.

`COc1ccc2nc(C(O)C(O)c3nc4ccc(OC)cc4[nH]3)[nH]c2c1` (stereo not shown) [A36683, reference compound]: the “therapeutic index (TI), ratio of toxic dose to efficacious dose” value in the data set on rhinovirus is 1000-3200.

For the compound `Cc1cn([C@H]2C[C@H](N=[N+]=[N-])[C@@H](CO)O2)c(=O)[nH]c1=O` [AZT, reference compound], the “activity in this model” value in data set [1] is reported as “no activity”. Besides, the “inhibition of viral replication” value with HIV worked out at 98%.

With `COc1cccc2c1C(=O)c1c(O)c3c(c(O)c1C2=O)C[C@@](O)(C(=O)CO)C[C@@H]3O[C@H]1C[C@H](N)[C@H](O)[C@H](C)O1` [Adriamycin, reference compound], the “EC-50 Result” value with HT29 colon tumor cells (HT29, first column) worked out at 0.03 ppm; with HT29 colon tumor cells (HT29, second column) it was 0.006 ppm; in the data set on MX1 breast cells (MX1, first column), 0.02 ppm; with MX1 breast cells (MX1, second column), 0.001 ppm; in the data set on A549 lung tumor cells (A549, first column), 0.03 ppm; in the data set with A549 lung tumor cells (A549, second column), 0.009 ppm.

As to `O=P1(N(CCCl)CCCl)NCCCO1` (stereo not shown) [Cytoxan, reference compound], the T/C with B-16 mouse melanoma (setting [5]) and in the data set with P388 (setting [5]) was 191 in each case. Further, the weight change in the data set on B-16 mouse melanoma (setting [5]) and in the data set with P388 (setting [5]) was −8.43% in each case. Besides, in the data set with P388 (P388-luekemia, positive control (125)), the “increased life span, Positive Control” value is “curative”. Moreover, the “% weight change (wt)” value in data set [2] (setting [6]) is −1%; in data set [2] (setting [7]), “+6%”; in [2] (setting [8]) it was “+10%”; in data set [2] (setting [9]) it was −15%; in data set [2] (setting [10]) it was −7%. The “toxic deaths/number of test subjects (deaths)” value in [2] (setting [6]) is 0/10; in data set [2] (setting [7]) it was 0/10; in data set [2] (setting [8]) it was 0/10; in [2] (setting [9]) it was 3/10; in [2] (setting [10]) it was 0/10. For the same compound, the “tumor growth suppression (tg supp.)” value in [2] (setting [6]) is on record as 69%; in data set [2] (setting [7]) it was 0%; in data set [2] (setting [8]), 45%; in data set [2] (setting [9]), 100%; in data set [2] (setting [10]), “complete”. The “Tumor Growth Decrease” value in data set [3] is recorded as “regression”; in the data set with lung, 69%.

For `CCC1=C[C@@H]2CN(C1)Cc1c([nH]c3ccccc13)[C@@](C(=O)OC)(c1cc3c(cc1OC)N(C)[C@H]1[C@@](O)(C(=O)OC)[C@H](OC(C)=O)[C@]4(CC)C=CCN5CC[C@]31[C@@H]54)C2` [Navelbine], the “increased life span, Positive Control” value in the data set on B-16 mouse melanoma (B16 melanoma, positive control (2)) came to 265%. Further, in data set [2] (setting [11]), the “% weight change (wt)” value is listed as −5%, the “toxic deaths/number of test subjects (deaths)” value was 1/10 and the “tumor growth suppression (tg supp.)” value came out at 26%.

Take `Nc1nc2c(ncn2COCCO)c(=O)[nH]1` [acyclovir, reference compound]: in the data set on herpes, the mean death date was 17.2 days and the mice survived was found to be 60%.

In turn, `NC12CC3CC(CC(C3)C1)C2` [amantadine, reference compound] gave a mice surviving in the data set on influenza of 100%.

For `CCCCNC(=O)n1c(NC(=O)OC)nc2ccccc21` [benomyl], the “EC-50 Result” value in the data set on HT29 colon tumor cells (HT29, first column) amounted to 0.742 ppm; in the data set with HT29 colon tumor cells (HT29, second column) it was 0.747 ppm; with MX1 breast cells (MX1, first column) it was 1.42 ppm; in the data set with MX1 breast cells (MX1, second column), 2.42 ppm; in the data set on A549 lung tumor cells (A549, first column), 0.980 ppm; in the data set with A549 lung tumor cells (A549, second column) it was 1.02 ppm.

For the compound `N.N.[Cl][Pt][Cl]` [cis-plat], in the data set with colon, the “Tumor Growth Decrease” value turned out to be 59%.

As to `[Cl-].[Na+]` [table salt], the LD50 in [4] is on record as 3750 mg/kg.
